Measured values from paper PMC6278385, “Preclinical Pharmacokinetics of C118P, a Novel Prodrug of Microtubules Inhibitor and Its Metabolite C118 in Mice, Rats, and Dogs” (Molecules, 2018).
Where two headings read alike, the source gives them in different places.

Key:
[1] = PK in rats after i.v. C118P; type: in vivo, SD rats; settings: both sexes, rat, plasma; for concentration at 30 s: intravenous, read-out: C2min (C30s for Rat); for concentration at 30 s / AUC(0-inf) / half-life: rats, n = 6
Description: The SD rats were supplied by the medical animal experiment center of Chinese People’s Liberation Army Nanjing military region. Twenty-four rats (210–300 g) with half males and half females were divided randomly into four groups. C118P was dissolved in saline to achieve different concentrations for intravenous administration. After fasting overnight, the rats were administered with a single intravenous dose of 5, 10, 20, or 50 mg/kg C118P. Blood samples (approximately 200 μL) were collected in EDTA-coated tubes pre-dose (0), and 30s, 2, 5, 10, 20, 40 min, 1, 2, 4, 8, 12 and 24 h post dose. Plasma was prepared by centrifugation at 8000 rpm for 5 min, and the plasma samples were then prepared and determined by the method described above.
(§1) The area under the plasma-concentration-versus-time curve from 0 to infinite (AUC0-inf), the elimination half-life (t1/2), the systemic plasma clearance (CL) and the volume of distribution (V) were calculated by non-compartmental analysis with WinNonlin software v6.3 (Pharsight Corporation, St. Louis, MO 63144, USA) from the plasma concentration data of C118P and C118, respectively. The instantaneous concentrations after intravenous to rats (C30s) or dogs (C2min) were obtained directly from the observed data.

[2] = Metabolic stability in liver microsomes; type: in vitro ADME, mice
Description: (§2) The in vitro metabolic stability of C118P and C118 were estimated in mice, rat, dog, monkey, and human liver microsomes (Research Institute for Liver Diseases Co. Ltd (Shanghai, China)). The incubation mixture contains C118P or C118, NADP (1.0 mM), G-6-P (10 mM), PDH (2 units/mL), MgCl2 (10 mM), and liver microsomes (mice, rats, dogs, monkeys, or humans, 1.0 mg protein/mL) in phosphate buffer. A total of 200 μL of the mixture was removed and quenched with 600 μL acetonitrile in an ice bath at 0, 15, 30, 60, 120, and 240 min after the addition of NADPH.
(§3) CLint, in vitro (the in vitro intrinsic clearance, Equation (1)) was calculated from the t1/2 of C118 disappearance, where Cprotein is the protein concentration during the incubation, and t1/2 was determined by the slope (k) of the log-linear regression analysis of the concentration versus time profiles; thus, t1/2 = ln2/k. […] The in vivo hepatic clearance (CLH, Equation (3)) was then calculated by using CLint and hepatic blood flow, Q ([…] mL·min^−1·kg^−1 in rats, dogs, monkey, and humans, respectively), in the well-stirred liver model disregarding all binding. The hepatic extraction ratio was calculated as CLH divided by Q. CLint, in vitro = (0.693/t1/2) × (1/Cprotein)(1) CLint = CLint, in vitro × (mg protein/g liver weight) × (gliver weight/kg body weight)(2) CLH = (Q × CLint)/(Q + CLint)(3)

[3] = Metabolic stability in liver microsomes; type: in vitro ADME, dog
Description: as §2, §3

[4] = Plasma protein binding by ultrafiltration; type: in vitro ADME, beagle dogs; settings: beagle, pooled plasma, dog plasma, read-out: fu (fraction unbound);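 also: fu expressed in percent not as a fraction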
Description: Both C118P and C118 were stable in the plasma with EDTA as anticoagulant. The non-specific binding to the ultrafilter membrane was negligible. The extent of plasma protein binding was reported as a fraction unbound (fu, %) value which was calculated using the formula fu = PF/TC × 100%, where TC is test compound (C118P or C118) concentration in sample before ultrafiltration, and PF is the test compound concentration in the ultrafiltrate (Table 1).
Plasma protein binding of C118P and C118 were determined by ultrafiltration at four concentrations (C118P: 400, 4000, 40,000, and 400,000 ng/mL, C118: 20, 200, 2000, and 20,000 ng/mL) in pooled plasma from Sprague-Dawley rats, beagle dogs, and humans. Stock solutions of C118P and C118 dissolved in methanol were diluted with blank plasma to achieve the test concentrations (the methanol volume is less than 10% of the plasma). The plasma was incubated for 1 h in a water bath at 37 °C. The total concentration of C118P and C118 of spiked plasma (TC) was analyzed by previously described methods. Ultrafiltration was performed with activated high speed centrifugal tubes (Millipore, Burlington, MA, USA). Plasma samples (0.4 mL) were added to the upper layer of the high speed centrifugal tubes, and then centrifuged at 12,000 g for 10 min. The concentration of unbound C118P and C118 in filtrate (PF) was similarly determined by the previously described methods. The percentage of free fraction (fu) of C118P and C118 was calculated as follows: fu = (PF/TC) × 100%.

[5] = PK in tumor-bearing nude mice after i.v. C118P; type: in vivo, nude mice (BALB/cA) implanted with NCI-H460 tumor; settings: for concentration at 2 min: intravenous, read-out: C2min; for concentration at 2 min / half-life / AUC(0-inf): nude mice, i.v. C118P 75 mg/kg, n = 4
Description: The nude mice (BALB/cA) implanted with NCI-H460 tumor were provided by Shanghai Institute of Materia Medica. A total of 36 mice were divided into 9 groups with four animals in each group. After fasting overnight with free access to water, the mice were treated with 75 mg/kg C118P by i.v. The blood samples were collected at 2, 10, 20, 40 min, 1, 2, 4, 8, 12 h after treatment and the mice were anaesthetized and decapitated to obtain the blood and tumor tissue. Blood, brain, muscle, ovary, and lung from mice in the PK study were collected at 10 min, 1, 4, and 12 h. Tissues were cleaned by absorbent filter paper to remove the blood. Bloods were centrifuged at 10,000× g for 5 min. Each tissue (0.2 g) was homogenized with 2 mL water. The plasma samples and the homogenates were then processed and determined by the method described above. The concentration was determined by the calibration curve and the actual concentration was corrected by multiplying by 10 according to the dilution times.
as §1

[6] = Sprague-Dawley, iv, i.v. C118P 10 mg/kg

Compound: COc1cc(OC)cc(-c2nc[nH]c2-c2ccc(OC)c(O)c2)c1 [C118]
- concentration at 30 s ([1]; SD, i.v. C118P 5 mg/kg): 1580 ± 318 ng/mL
- concentration at 30 s ([1]; SD, i.v. C118P 20 mg/kg): 7720 ± 2010 ng/mL
- concentration at 30 s ([1]; SD, i.v. C118P 50 mg/kg): 20600 ng/mL
- AUC(0-inf) ([1]; SD, iv, i.v. C118P 5 mg/kg): 741 ± 63.2 ng·h/mL
- half-life ([1]; SD, iv, i.v. C118P 5 mg/kg): 31.2 ± 6 min
- AUC(0-inf) ([1]; SD, iv, i.v. C118P 20 mg/kg): 3750 ± 592 ng·h/mL
- half-life ([1]; SD, iv, i.v. C118P 20 mg/kg): 36 ± 3.6 min
- AUC(0-inf) ([1]; SD, iv, i.v. C118P 50 mg/kg): 9720 ± 1300 ng·h/mL
- half-life ([1]; SD, iv, i.v. C118P 50 mg/kg): 149 ± 75.6 min
- clearance ([1]; Sprague-Dawley, iv, in vivo, compared with extrapolated CLH, read-out: Observed CL): 62.9 mL/min/kg
- concentration at 30 s ([1]; Sprague-Dawley, i.v. C118P 10 mg/kg): 3720 ± 974 ng/mL
- AUC(0-inf) [1, 6]: 1600 ± 193 ng·h/mL
- half-life [1, 6]: 33 ± 7.8 min
- CLint, in vitro ([2]; mice liver microsomes): 44.7 μL·min^−1·mg^−1 Protein
- CLint ([2]; mice, scaled from CLint, in vitro): 115.3 mL/min/kg
- half-life ([2]; mouse, mice liver microsomes, 1.0 mg protein/mL, C118 disappearance): 15.5 min
- CLint, in vitro ([3]; dog liver microsomes): 9.9 μL·min^−1·mg^−1 Protein
- half-life ([3]; dog liver microsomes, 1.0 mg protein/mL, C118 disappearance): 70.1 min
- CLint ([3]; dog, scaled from CLint, in vitro): 18.9 mL/min/kg
- Extrapolated CLH ([3]; dog, well-stirred liver model): 12.8 mL/min/kg
- fraction unbound at 1 h, 200 ng/mL ([4]; C118 200 ng/mL): 0.058 ± 0.002
- fraction unbound at 1 h, 2000 ng/mL ([4]; C118 2000 ng/mL): 0.062 ± 0.004
- fraction unbound at 1 h, 20000 ng/mL ([4]; C118 20,000 ng/mL): 0.054 ± 0.004
- concentration at 2 min ([5]; BALB/cA nude, mouse, plasma): 42500 ng/mL
- concentration at 2 min ([5]; BALB/cA nude, mouse, tumor): 13800 ng/g
- half-life ([5]; BALB/cA nude, mouse, iv, plasma): 58.2 ± 6 min
- AUC(0-inf) ([5]; BALB/cA nude, mouse, iv, plasma, read-out: AUC0-inf): 13400 ng·h/mL
- half-life ([5]; BALB/cA nude, mouse, iv, tumor): 222 ± 88.8 min
- clearance ([5]; BALB/cA nude, mouse, plasma, iv, 75 mg/kg, mice, in vivo, compared with extrapolated CLH, read-out: Observed CL): 88.8 mL/min/kg
- AUC(0-inf) ([5]; tumor): 73,027.8 ± 24,951.2 ng × h/g
